Measurements published in patent US20240016953A1, “TARGETED DELIVERY OF NICOTINAMINDE ADENINE DINUCLEOTIDE SALVAGE PATHWAY INHIBITORS” (Seagen Inc., priority 2016, published 2024).
pIC50: −log10 of the molar value.

Assays:
[1] = test system: MOLM-13 (acute myeloid leukemia); test: Cytotoxicity (CellTiter-Glo) assay, MOLM-13; format: cell-based; conditions: Homo sapiens, MOLM-13, read-out: IC50, Cytotoxicity MOLM-13
Protocol: (§1) Example 99: Binding and cytoxicity of NAMPTi compounds. NAMPTi compounds and derivatives thereof bearing functional groups on their NAMPT Tail (TN) Units for covalent attachment as a NAMPT Drug Unit to a Linker Unit of a Drug Linker compound or Ligand Drug Conjugate were evaluated for binding to enzymatically competent NAMPT using a fluorescence polarization assay as described in Example X, and for cytotoxicity using the CellTiter-Glo™ assay as described in Example XX. […] In vitro cytotoxicities were more varied, with differences in membrane permeability potentially influencing the observed IC50 values. Tighter-binding compounds determined from the polarization assay representation various NAMPT Head Unit classes were selected for further elaboration into drug linker moieties within Drug Linker compounds and Ligand Drug Conjugates. Those elaborations employed carbamate or benzyl ether functional groups or methylene-alkoxy carbamate (MAC) units for covalent attachment of the NAMPT Drug Unit to a self-immolative Spacer Unit in the Linker Units of the drug linker moieties, depending on the functional group presented by the TN Unit.

[2] = test system: BxPC-3 (pancreatic adenocarcinoma); test: Cytotoxicity (CellTiter-Glo) assay, BxPC-3; format: cell-based; conditions: Homo sapiens, BXPC-3, read-out: IC50, Cytotoxicity BxPC-3
Protocol: as §1

[3] = test system: HepG2 (hepatocellular carcinoma); test: Cytotoxicity (CellTiter-Glo) assay, HepG2; format: cell-based; conditions: Homo sapiens, HepG2, read-out: IC50, Cytotoxicity HepG2
Protocol: as §1

[4] = test system: L540cy (Hodgkin's lymphoma); test: Cytotoxicity (CellTiter-Glo) assay, L540cy; format: cell-based; conditions: read-out: IC50, Cytotoxicity L540cy
Protocol: as §1

[5] = target: T1, NAMPT (Homo sapiens, UniProt P43490); test: Fluorescence polarization (FP) assay for binding to purified NAMPT; conditions: for pIC50: NAMPT 120 nM, fluorescent probe 30 nM, 4 hours at room temp
T1 construct: made in house; host or cells: E. coli (pET28a vector, Novagen)
T1 sequence (P43490 whole entry): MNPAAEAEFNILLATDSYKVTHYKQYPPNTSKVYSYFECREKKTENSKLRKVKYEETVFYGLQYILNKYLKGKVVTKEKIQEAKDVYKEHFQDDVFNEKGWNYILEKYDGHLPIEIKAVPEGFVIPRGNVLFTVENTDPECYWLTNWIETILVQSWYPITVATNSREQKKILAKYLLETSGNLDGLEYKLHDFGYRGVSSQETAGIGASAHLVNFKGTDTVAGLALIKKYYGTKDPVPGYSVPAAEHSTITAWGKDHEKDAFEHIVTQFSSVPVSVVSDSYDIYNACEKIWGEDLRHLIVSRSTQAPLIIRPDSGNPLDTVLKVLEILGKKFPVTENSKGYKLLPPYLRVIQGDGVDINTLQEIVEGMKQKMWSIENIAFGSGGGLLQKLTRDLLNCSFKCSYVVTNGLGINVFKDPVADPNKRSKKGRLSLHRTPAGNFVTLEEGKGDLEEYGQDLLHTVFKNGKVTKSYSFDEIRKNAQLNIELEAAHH

| pIC50 [5] | Compound | pIC50 [1] | pIC50 [2] | pIC50 [3] | pIC50 [4] | Change in NAMPT enzyme binding on modification of the TN Unit, relative to parent NAMPTi compound ([5]; FP assay, in words) |
| --- | --- | --- | --- | --- | --- | --- |
| – | N#CN=C(NCCCCCCOc1ccc(Cl)cc1)Nc1ccncc1 [CHS-828, reference compound] | 8.34 | 8.10 | 8.94 | 8.65 | – |
| – | O=C(/C=C/c1cccnc1)NCCCCC1CCN(C(=O)c2ccccc2)CC1 [FK-866, reference compound] | 8.18 | 7.44 | 8.26 | 8.14 | – |
| 6.94 | Nc1ccc(C(=O)N2CCC(CCCCNC(=O)/C=C/c3cccnc3)CC2)cc1 [compound 4, (E)-N-(4-(1-(4-Aminobenzoyl)Piperidin-4-Yl)Butyl)-3-(Pyridin-3-y1)Acrylamide] | – | – | – | – | – |
| 7.00 | Nc1ccccc1C(=O)N1CCC(CCCCNC(=O)/C=C/c2cccnc2)CC1 [compound 5, (E)-N-(4-(1-(2-Aminobenzoyl)Piperidin-4-Yl)Butyl)-3-(Pyridin-3-Yl)Acrylamide] | 7.40 | 6.16 | 6.00 | 7.46 | – |
| 7.44 | O=C(/C=C/c1cccnc1)NCCCCC1CCN(C(=O)c2cccc(O)c2)CC1 [compound 6, (E)-N-(4-(1-(3-Hydroxybenzoyl)Piperidin-4-Yl)Butyl)-3-(Pyridin-3-Yl)Acrylamide] | 8.10 | 6.71 | 7.54 | 7.70 | – |
| 7.10 | O=C(/C=C/c1cccnc1)NCCCCC1CCN(C(=O)c2ccc(O)cc2)CC1 [compound 7, (E)-N-(4-(1-(4-Hydroxybenzoyl)Piperidin-4-Yl)Butyl)-3-(Pyridin-3-Yl)Acrylamide] | – | – | – | – | – |
| 7.00 | O=C(/C=C/c1cccnc1)NCCCCC1CCN(C(=O)c2ccccc2O)CC1 [compound 8, (E)-N-(4-(1-(2-Hydroxybenzoyl)Piperidin-4-Yl)Butyl)-3-(Pyridin-3-Yl)Acrylamide] | 7.00 | 6.19 | 6.66 | 7.06 | – |
| 7.10 | O=C(/C=C/c1cccnc1)NCCCCC1CCN(C(=O)c2cccc(OCCO)c2)CC1 [compound 9, (E)-N-(4-(1-(3-(2-Hydroxyethoxy)Benzoyl)Piperidin-4-Yl)Butyl)-3-(Pyridin-3-Yl)Acrylamide] | – | – | – | – | – |
| 7.04 | O=C(/C=C/c1cccnc1)NCCCCC1CCN(C(=O)c2ccc(OCCO)cc2)CC1 [compound 10, (E)-N-(4-(1-(4-(2-Hydroxyethoxy)Benzoyl)Piperidin-4-Yl)Butyl)-3-(Pyridin-3-Yl)Acrylamide] | – | – | – | – | – |
| 7.09 | CN(CCON(C(=O)CCCCCCNC(=O)Nc1ccncc1)C1CCCCC1)C(=O)c1cccc(N)c1 [compound 43, 3-Amino-N-(2-((N-Cyclohexyl-7-(3-(Pyridin-4-Yl)Ureido)-Heptanamido)Oxy)Ethyl)-N-Methylbenzamide] | 8.22 | 8.10 | 8.40 | 8.52 | significant improvement in binding relative to parent compound 30 |
| 7.39 | O=C(CCCCCCNc1c(Nc2ccncc2)c(=O)c1=O)N(OCCN1CCOCC1)C1CCCCC1 [compound 52, reference compound] | 8.28 | 7.41 | 8.06 | 8.32 | – |
| 7.21 | CCN(CCON(C(=O)CCCCCCNc1c(Nc2ccncc2)c(=O)c1=O)C1CCCCC1)C(=O)c1cccc(N)c1 [compound 60] | 8.10 | 6.90 | 7.46 | 7.51 | – |
| 7.62 | O=C(CCCCCCCNc1c(Nc2ccncc2)c(=O)c1=O)N(CCO)Cc1ccco1 [compound 66] | 7.57 | 6.68 | 7.22 | 7.65 | – |
| 7.80 | O=C(CCCCCCCNc1c(Nc2ccncc2)c(=O)c1=O)N1CCC(O)CC1 [compound 67] | 6.97 | 6.00 | 6.02 | 6.58 | – |
| 7.57 | O=C(CCCCCCCNc1c(Nc2ccncc2)c(=O)c1=O)N1CC(O)C1 [compound 68] | 6.09 | 6.00 | 6.00 | 6.00 | – |
| 7.46 | CN(CC1(CO)CCCC1)C(=O)CCCCCCCNc1c(Nc2ccncc2)c(=O)c1=O [compound 69, 8-((3,4-Dioxo-2-(Pyridin-4-Ylamino)Cyclobut-1-En-1-Yl)Amino)-N-((1-(Hydroxymethyl)Cyclopentyl)Methyl)-N-Methyloctanamide] | 7.74 | 7.01 | 7.90 | 8.04 | – |
| 7.54 | CN(CCO)C(=O)CCCCCCCNc1c(Nc2ccncc2)c(=O)c1=O [compound 72] | 6.09 | 6.00 | 6.00 | 6.00 | – |
| 7.77 | CN(CC1(CO)CCCC1)C(=O)CCCCCCCN/C(=N\C#N)Nc1ccncc1 [compound 80, (E)-8-(2-Cyano-3-(Pyridin-4-Yl)Guanidino)-N-((1-(Hydroxymethyl)Cyclopentyl)Methyl)-N-Methyloctanamide] | 8.79 | 8.21 | 8.97 | 9.11 | – |
| 7.62 | N#C/N=C(\NCCCCCCCC(=O)N(CCO)Cc1ccco1)Nc1ccncc1 [compound 81, (E)-8-(2-Cyano-3-(Pyridin-4-Yl)Guanidino)-N-(Furan-2-Ylmethyl)-N-(2-Hydroxyethyl)Octanamide] | 8.68 | 7.75 | 8.19 | 8.80 | – |
| – | N#C/N=C(\NCCCCCCCC(=O)N1CCC(O)CC1)Nc1ccncc1 [compound 82, (E)-2-Cyano-1-(8-(4-Hydroxypiperidin-1-Yl)-8-Oxooctyl)-3-(Pyridin-4-Yl)Guanidine] | 8.00 | 6.77 | 7.60 | 7.41 | – |
| 7.49 | CN(CCO)C(=O)CCCCCCCN/C(=N\C#N)Nc1ccncc1 [compound 83, (E)-8-(2-Cyano-3-(Pyridin-4-Yl)Guanidino)-N-(2-Hydroxyethyl)-N-Methyloctanamide] | 6.81 | 6.05 | 7.12 | 7.29 | – |

| Compound | pIC50 [5] | pIC50 [1] | pIC50 [2] | pIC50 [3] | pIC50 [4] | Change in NAMPT enzyme binding on modification of the TN Unit, relative to parent NAMPTi compound ([5]; FP assay, in words) |
| --- | --- | --- | --- | --- | --- | --- |
| Nc1cccc(C(=O)N2CCC(CCCCNC(=O)/C=C/c3cccnc3)CC2)c1 [compound 3] | 7.40 | 8.15 | 7.41 | 8.10 | 8.07 | – |
